The subject of one data set is E. faecium ATCC 700221. The data set is described as follows: MIC broth microdilution (CLSI). Type of data set: cell-based. (Dilution methods test growth across graded concentrations, often in twofold steps.)
A further data set has as its system P. aeruginosa ATCC 27853. The data set is described as follows: MIC broth microdilution (CLSI). Type of data set: cell-based. Conditions: Pseudomonas aeruginosa, ATCC27853; read-out: MIC. In short, it runs like this:
(§1)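 CLSI microdilution; cation-adj. MHBII; 5 × 10^4 cells/well, 100 μL; DMSO ≤0.64% (at 64 μg/mL); 37 °C, 150 rpm, 18 h; OD600 read; MIC = conc. with mean OD600 rise <1.5× background, n=3.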

The next data set concerns K. pneumoniae ATCC 10031. The data set is described as follows: MIC broth microdilution (CLSI). Conditions: Klebsiella pneumoniae, ATCC10031; read-out: MIC. Type of data set: cell-based. The procedure, abridged:
as §1

Data set [1] has as its system S. aureus (MRSA) ATCC 43300. The data set is described as follows: MIC broth microdilution (CLSI). Type of data set: cell-based. Conditions: Staphylococcus aureus. In short, it runs like this:
as §1

The next data set deals with E. coli ATCC 25922. The data set is described as follows: MIC broth microdilution (CLSI). Type of data set: cell-based. Conditions: Escherichia coli, ATCC25922; read-out: MIC. In short, it runs like this: as §1
Another data set can be described thus: physchem. Type of data set: physicochemical. Conditions: for solubility thermodynamic at 24 h / solubility thermodynamic at 48 h: phosphate-buffered saline (PBS). The method, then:
For the PBS, 2.38 g of disodium hydrogen phosphate dodecahydrate, 0.19 g of potassium dihydrogen phosphate, and 8.0 g of sodium chloride were added to distilled water (900 mL), and the solution was mixed overnight. […] Samples were prepared by weighing the exact mass of solid compounds (about 1 mg), and then, the appropriate volume of PBS was added to reach the final concentration of ∼1 mg/mL. […] The supernatant was diluted 3× with a 1:1 mixture of 0.1% TFA in water and acetonitrile and analyzed by HPLC. For the 7-point calibration curves, concentrated stock solutions of the compounds were prepared at concentrations of 10 and 0.5 mM in DMSO, which were diluted with a 1:1 mixture of 0.1% TFA in water and acetonitrile to the desired final concentrations and analyzed by HPLC. Results are given in μM as an average value of two independent experiments. For details on calibration curves, concentrations, analytical method, and HPLC method, see the Supporting Information.
Thermodynamic solubility assay
To determine thermodynamic solubility of compounds in PBS, calibration curves for the assayed compounds were prepared using seven concentrations. First, DMSO stock solutions of compounds at 10 mM and 0.5 mM concentration were prepared and then diluted (0.1% TFA in […]
Quality control (QC) samples were diluted from stock solutions with a 1:1 mixture of 0.1% TFA in water and acetonitrile to final concentrations of 60 µM, 20 µM, and 2 µM (6 µM, 2 µM, and 0.2 µM for 7f or 0.6 µM, 0.2 µM, and 0.02 µM for 7g).
Analytical reversed-phase UHPLC analyses were performed on Thermo Scientific Dionex UltiMate 3000 modular system (Thermo Fisher Scientific Inc., MA, USA). Waters Acquity UPLC® HSS C18 SB column (2.1 × 50 mm, 1.8 μm; Waters, Milford, MA, USA) was used at T […]
Mobile phase consisted of 0.1% trifluoroacetic acid in ultrapure water (solvent A) and acetonitrile […]
The obtained data was processed in Chromeleon CDS software (Thermo Fisher Scientific Inc., […]
Analytical method was tested for accuracy, precision and linear rang. Accuracy was […]
(or 2 or 0.2) µM and 60 (or 6 or 0.6) µM) to their true values and expressed in (%). Values were […]
Method repeatability was determined by calculating the RSD from the separately prepared and analysed quality control samples (n = 3). […] Linearity of the […]
method (1 (or 0.1 or 0.01) µM to 100 (or 10 or 1) µM) was evaluated from the 7-point calibration […]
Solubility was determined in two independent experiments and results were calculated in […]

Another data set has as its system A. baumannii ATCC 17978. Briefly: MIC broth microdilution (CLSI). Type of data set: cell-based. Conditions: Acinetobacter baumannii, ATCC17978. In short, it runs like this:
(§2)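 Cation-adjusted Mueller Hinton broth 2 microdilution, 5 × 10^4 cells per well in 100 μL, three parallel replicates, plates bagged to limit evaporation; growth read as OD600 after incubation.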

The next data set deals with S. aureus ATCC 29213. The data set is described as follows: MIC broth microdilution (CLSI). Type of data set: cell-based. Conditions: Staphylococcus aureus, ATCC29213. In short, it runs like this:
as §2

Setting [2] is: Enterococcus faecium, ATCC700221, read-out: MIC.
Where [3] appears, read: read-out: MIC [µg/mL](S. aureus MRSA ATCC4330).
Setting [4] is: pH 7.4, PBS pH 7.4, read-out: thermodynamic solubility, Experiment 1.
The mark [5] stands for this setting: pH 7.4, PBS pH 7.4, read-out: thermodynamic solubility, Experiment 2.
Setting [6] is: pH 7.4, thermodynamic solubility (pH = 7.4), PBS, 37 °C, 24 h, mean of two.
Where [7] appears, read: read-out: MIC [µg/mL] (A. baumannii ATCC 17978).
Setting [8] is: read-out: MIC [µg/mL](S. aureus ATCC 29213).

The structures appear in SMILES notation. In brackets after ≈: the same amount, converted by molar mass. Several values for one entry are separate records, joined by “and”; a condition that tells them apart may be missing. Equal entries are not always repeated. Where two headings read alike, the source gives them in different places. Bounds are passed on as bounds.

As usually defined, the thermodynamic solubility is the concentration in solution at equilibrium with solid. Turning to `Cc1[nH]c(C(=O)Nc2nc3c(N4CCOC(C)C4)cc(C(=O)O)cc3s2)c(Cl)c1Cl` (centres unmarked) [7e, 2-(3,4-Dichloro-5-methyl-1H-pyrrole-2-carboxamido)-4-(2-methylmorpholino)benzo[d]thiazole-6-carboxylic Acid], the MIC in the data set with E. faecium ATCC 700221 (setting [2]) was < 0.0312 µg/mL; in the data set on P. aeruginosa ATCC 27853, 16 µg/mL; in the data set with K. pneumoniae ATCC 10031 it was 2 µg/mL; in data set [1] (read-out: MIC), 0.0625 µg/mL; in data set [1] (setting [3]), 0.0625 µg/mL; in the data set on E. coli ATCC 25922, 8 µg/mL. Also, the MIC came out at 8 µg/mL with A. baumannii ATCC 17978 (read-out: MIC), 8 µg/mL in the data set on A. baumannii ATCC 17978 (setting [7]), 0.0625 µg/mL in the data set on S. aureus ATCC 29213 (read-out: MIC) and 0.0625 µg/mL with S. aureus ATCC 29213 (setting [8]). Further, in “physchem” (PBS, 37 °C, 24 h, mean of two), the “thermodynamic solubility (pH = 7.4)” value was found to be 80.35 µM. In addition, the thermodynamic solubility at 24 h was 71.9 µM (≈ 33.7 µg/mL) in the data set “physchem” (setting [4]), 88.8 µM (≈ 41.7 µg/mL) in “physchem” (setting [5]) and 80.4 µM (≈ 37.7 µg/mL) in the data set “physchem” (setting [6]). The solubility (thermodynamic) at 48 h in “physchem” (setting [6]) turned out to be 80 µM (≈ 37.5 µg/mL).
For `Cc1[nH]c(C(=O)Nc2nc3c(N4CC(C)OC(C)C4)cc(C(=O)O)cc3s2)c(Cl)c1Cl` (centres unmarked) [7f, 2-(3,4-Dichloro-5-methyl-1H-pyrrole-2-carboxamido)-4-(2,6-dimethylmorpholino)benzo[d]thiazole-6-carboxylic Acid], the MIC was < 0.0312 µg/mL in the data set with E. faecium ATCC 700221 (setting [2]); 8 µg/mL in the data set on P. aeruginosa ATCC 27853; 8 µg/mL in the data set with K. pneumoniae ATCC 10031; < 0.0312 µg/mL in data set [1] (read-out: MIC); < 0.0312 µg/mL in data set [1] (setting [3]); 8 µg/mL in the data set with E. coli ATCC 25922. Besides, the MIC with A. baumannii ATCC 17978 (read-out: MIC) is 1 µg/mL; in the data set with A. baumannii ATCC 17978 (setting [7]), 1 µg/mL; with S. aureus ATCC 29213 (read-out: MIC) it was < 0.0312 µg/mL; with S. aureus ATCC 29213 (setting [8]) it was < 0.0312 µg/mL. For the same compound, the solubility (thermodynamic) at 24 h in “physchem” (setting [4]) came out at 0.95 µM (≈ 0.459 µg/mL); in the data set “physchem” (setting [5]), 0.89 µM (≈ 0.43 µg/mL); in the data set “physchem” (setting [6]), 0.92 µM (≈ 0.445 µg/mL).
For `Cc1[nH]c(C(=O)Nc2nc3c(N4C[C@H]5CC[C@@H](C4)O5)cc(C(=O)O)cc3s2)c(Cl)c1Cl` [7g, 4-((1R,5S)-8-Oxa-3-azabicyclo[3.2.1]octan-3-yl)-2-(3,4-dichloro-5-methyl-1H-pyrrole-2-carboxamido)benzo[d]thiazole-6-carboxylic Acid], the MIC with E. faecium ATCC 700221 (setting [2]) was < 0.0312 µg/mL; in the data set on P. aeruginosa ATCC 27853, 2 µg/mL; in the data set with K. pneumoniae ATCC 10031, 2 µg/mL; in data set [1] (read-out: MIC), < 0.0312 µg/mL; in data set [1] (setting [3]) it was < 0.0312 µg/mL; in the data set on E. coli ATCC 25922, 2 µg/mL. Besides, the MIC is 1 µg/mL in the data set with A. baumannii ATCC 17978 (read-out: MIC), 1 µg/mL in the data set with A. baumannii ATCC 17978 (setting [7]), < 0.0312 µg/mL in the data set on S. aureus ATCC 29213 (read-out: MIC) and < 0.0312 µg/mL in the data set on S. aureus ATCC 29213 (setting [8]). Besides, the thermodynamic solubility at 24 h in the data set “physchem” (setting [4]) came to 0.33 µM (≈ 0.159 µg/mL); in the data set “physchem” (setting [5]), 0.19 µM (≈ 0.0915 µg/mL). This compound had a solubility (thermodynamic) at 48 h in the data set “physchem” (setting [6]) of 0.26 µM (≈ 0.125 µg/mL).
As for `Cc1[nH]c(C(=O)Nc2nc3c(N4CCOCC4)cc(C(=O)O)cc3s2)cc1F` [16b, 2-(4-Fluoro-5-methyl-1H-pyrrole-2-carboxamido)-4-morpholinobenzo[d]thiazole-6-carboxylic Acid], the MIC is 2 µg/mL in the data set with E. faecium ATCC 700221; 2 µg/mL with E. faecium ATCC 700221 (setting [2]); 32 µg/mL in data set [1] (read-out: MIC); 32 µg/mL in data set [1] (setting [3]); > 64 µg/mL in the data set with E. coli ATCC 25922; > 64 µg/mL with A. baumannii ATCC 17978 (setting [7]). In addition, the MIC in the data set on S. aureus ATCC 29213 (read-out: MIC) and in the data set with S. aureus ATCC 29213 (setting [8]) was 64 µg/mL each time. For the same compound, the “thermodynamic solubility (pH = 7.4)” value in the data set “physchem” (PBS, 37 °C, 24 h, mean of two) was 131.4 µM and 131.42 µM. Also, the solubility (thermodynamic) at 24 h in “physchem” (setting [4]) was 140 µM (≈ 56.7 µg/mL); in “physchem” (setting [5]) it was 123 µM (≈ 49.6 µg/mL); in the data set “physchem” (setting [6]), 131 µM (≈ 53 µg/mL).

(Values after paper PMC10041525, “New Dual Inhibitors of Bacterial Topoisomerases with Broad-Spectrum Antibacterial Activity and In Vivo Efficacy against Vancomycin-Intermediate Staphylococcus aureus” (Journal of Medicinal Chemistry, 2023).)
